We go through 2 compounds from patent publication EP0740650B1, “CODRUGS AS A METHOD OF CONTROLLED DRUG DELIVERY” (priority 1994, dated 1995).

Series [1] in a line: Subconjunctival codrug devices: release from explanted devices, toxicity (Example 6). Format: in vivo, rabbits. Particulars: rabbit. The procedure: Codrug devices were prepared as flat discs 2.5 mm in diameter weighing 5 mg. Each device contained approximately 3.7 mg of TRI and 1.3 mg of 5FU and were composed of over 97% active substance. Devices were implanted subconjunctivally in each eye of ten rabbits (figure 2). Toxicity and inflammation were determined by weekly slit lamp examinations and electroretinograms (ERGs). Animals were sacrificed after 3, 7, 10 and 14 days and eyes eviscerated. After freezing at -70°C devices were removed for determination of residual drugs and the complete vitreous and aqueous dissected from the ice ball to determine the concentration of SFU and TRI. Two animals were used for histology and were sacrificed 6 weeks after implantation.

The next series can be described thus: in vitro. Format: in vitro ADME. The settings on record: human, serum, t½. How it is done: A stock solution was prepared by dissolving 10 mg of 5FU/TRI in 10 ml acetonitrile. This was then added to a series of phosphate buffers at pH 3, 5, 6.4, 7.4 and 8.4 at 37°C to give final concentrations of 100 ug/ml. Care was taken to ensure that these solutions were indeed solutions and not suspensions. Samples were periodically removed and assayed by HPLC as described below. Enzymatic hydrolysis was determine in a similar way using pooled serum from 3 volunteers. The assay procedure used distinguished between TRI and 5FU/TRI. 5FU was assayed under different conditions. HPLC Assays: Samples of buffer containing codrug and steroids were assayed by HPLC using a fully automated Hitachi system with a C-18 reverse phase column (25 cm × 4 mm x 5 µm) and uv detection. The mobile phase was 40% acetonitrile buffered to 4.0 with 0.02% sodium acetate. The flow rate was 1.0 ml/min and detection was at 238 nm. Under these conditions the retention time of the codrug 5FU/TRI was 17 minutes while triamcinolone acetonide eluted at 9 minutes. Quantitation limits were 0.3 and 0.5 ug/ml, respectively. […] For 5FU an Applied Biosystems HPLC system was used with a C-18 column reverse phase column (25 cm x 4 mm x 5 µm) and 0.02% sodium acetate buffer mobile phase (Ph 4.0). The flow rate was 1.0 ml/min and detection was by uv at 266 nm. […]
To quantitate 5FU it was necessary to remove acetonitrile before analysis. […]

A short description of series [2]: physchem. The settings on record: buffer.
The conditions of series [3]: immersed in pH 7.4 buffer.
Series [4] deals with proliferative vitreoretinopathy (PVR). The series can be described thus: Intravitreal pellet after vitrectomy, proliferative vitreoretinopathy. Particulars: pellet implanted intravitreally after vitrectomy; animal studies proceeding. The series is classed as in vivo.
Series [5] in a line: Vitreous concentrations after intravitreal implantation of codrug pellets (Example 4). Format: in vivo, New Zealand white rabbits. The procedure: Two mg pellets of the codrug 5FU/TRI were prepared using a 1.5 mm press. These pellets were then fixed onto 6-0 nylon suture using intraocular lens grade silicone. silicone covered the base of the pellets providing a platform for suture attachment. Alternatively a solution of 2% or 5% polylactic acid was used. Pellets attached by both methods were implanted into the vitreous of 8 New Zealand white rabbits through a small incision through the sclera. For each type of device, two animals were killed after 1, 2, 3, and 4 weeks and the vitreous and aqueous obtained from the frozen sphere. Before death animals were examined with a slit lamp. […] Pellets were then implanted into the vitreous of 8 New Zealand White rabbits in a similar manner to that described in 3b except that sclerotomy sites were smaller in this case (2.5 mm). […] HPLC analysis was then performed on tissue samples and explanted devices to determine the concentrations of 5FU, triamcinolone acetonide and intact 5FU/TRI.

In series [6] the test system is extraocular muscle (EOM) surgery in rabbits. The series can be described thus: Scar reduction after extraocular muscle surgery with codrug implants (Example 5). Format: in vivo. The procedure: After the IRM was sewn back into its insertion site, four 2 mg codrug implants were inserted between sclera and muscle in the right eye, while the left was used as a control. Bioerodible codrug implants releasing 5FU and TRI over 6 weeks were prepared. Devices release equimolar amounds of 5FU and TRI. Animals were sacrificed at 1, 2 and 3 weeks and eyes eviscerated. Specimens were prepared and stained with H&E. The scar thickness and cellular infiltrate were determined quantitatively using a Bioscan image analysis program.

Series [7] in a line: physchem. The series is classed as physicochemical. Particulars: phosphate buffer. How it is done:
A stock solution was prepared by dissolving 10 mg of 5FU/TRI in 10 ml acetonitrile. This was then added to a series of phosphate buffers at pH 3, 5, 6.4, 7.4 and 8.4 at 37°C to give final concentrations of 100 ug/ml. Care was taken to ensure that these solutions were indeed solutions and not suspensions. Samples were periodically removed and assayed by HPLC as described below. Enzymatic hydrolysis was determine in a similar way using pooled serum from 3 volunteers. The assay procedure used distinguished between TRI and 5FU/TRI. 5FU was assayed under different conditions. HPLC Assays: Samples of buffer containing codrug and steroids were assayed by HPLC using a fully automated Hitachi system with a C-18 reverse phase column (25 cm × 4 mm x 5 µm) and uv detection. The mobile phase was 40% acetonitrile buffered to 4.0 with 0.02% sodium acetate. The flow rate was 1.0 ml/min and detection was at 238 nm. Under these conditions the retention time of the codrug 5FU/TRI was 17 minutes while triamcinolone acetonide eluted at 9 minutes. Quantitation limits were 0.3 and 0.5 ug/ml, respectively. […] For 5FU an Applied Biosystems HPLC system was used with a C-18 column reverse phase column (25 cm x 4 mm x 5 µm) and 0.02% sodium acetate buffer mobile phase (Ph 4.0). The flow rate was 1.0 ml/min and detection was by uv at 266 nm. Under these condition the retention time was 6.5 minutes and the detection limit 0.2 ug/ml.

Series [8] is described as follows: Intravitreal codrug implants: pharmacokinetics and toxicity (Example 8). Format: in vivo, New Zealand White rabbits. Particulars: intravitreal implant. The procedure:
(§1) Bioerodible codrug implants were prepared 1.5 mm in diameter and attached to 6-0 nylon suture. Implants were immersed in 5 ml of phosphate buffer (pH 7.4) and samples periodically removed for HPLC assay to determine the release of both 5FU and TRI. Similar implants were then inserted into the vitreous of 14 New Zealand White rabbits (figure 4). Toxicity was assess by electroretinogram and slit lamp examination in all animals. Histopathologic examination was performed on four animals. Ten animals were used for pharmacokinetics; two animals were sacrificed 1, 2, 3, 4 and 5 weeks after implantation. Eyes were enucleated, devices removed and both vitreous and aqueous obtained. All samples were assayed by HPLC. Five animals received actual devices in one eye and placebo implants in contralateral eyes. These were sacrificed after 3 and 6 weeks for histopathologic examination.

Series [9] can be described thus: In vitro release from 1.5 mm codrug implants in phosphate buffer (Example 8). Format: physicochemical. The settings on record: 1.5 mm implant, phosphate buffer pH 7.4. The procedure:
as §1

The subject of series [10] is posterior capsular opacification (PCO). The series can be described thus: Posterior capsular opacification after cataract extraction and IOL implantation with codrug pellet (Example 7). Format: in vivo, New Zealand White rabbits. How it is done:
Codrug pellets were prepared that gave pseudo zero order release of 5FU and TRI in an equimolar ratio over 6 weeks. […] 1.5 mm pellets containing 1.5 mg of TRI and 0.5 mg 5FU were prepared and fixed to the haptics of IOLs using the bioerodible polybutyl cyanoacrylate. This polymer is soaked into the pellet forming a codrug/cyanoacrylate matrix as it dried (figure 3). 16 New Zealand White rabbits were used in this study, one eye (control) received a polymethyl methacrylate intraocular lens (IOL) (Chiron Intraoptics) while the other received an IOL with codrug. Eyes were examined regularly by slit lamp and PCO scored from 0 to 4+. Retinal function was determined by electroretinogram (ERG) before implantation and before sacrifice. Animals were sacrificed after 4, 8, 12 and 16 weeks; eyes were removed and fixed in formalin. Photographs of posterior capsule were projected onto a grid and the percentage of PCO calculated.

A short description of series [11]: In vitro release from 2 mg codrug pellets in phosphate buffer (Example 3). The series is classed as physicochemical. How it is done:
Two mg pellets of the codrug 5FU/TRI were prepared in a 1.5 mm pellet press using a modified Parr Instrument Press. Pellets were then immersed in 5 ml phosphate buffer (Ph 7.4, 37 °C) and 300 µl samples removed each day for 6 days; there immediately replaced was replaced 300 µl of buffer. Samples were assayed by HPLC for 5FU/TRI, triamcinolone acetonide and 5FU. After 6 days buffer was completely replaced, to maintain sink conditions, and sampling continued.

Series [12] is described as follows: Stability of acetazolamide sulfocarbamate derivative in buffer solution. Format: physicochemical.

As for `CC1(C)O[C@@H]2C[C@H]3[C@@H]4CCC5=CC(=O)C=C[C@]5(C)[C@@]4(F)[C@@H](O)C[C@]3(C)[C@]2(C(=O)COC(=O)OCn2cc(F)c(=O)[nH]c2=O)O1` [5FU/TRI], the ERGs entry in series [1] (in vivo) was “normal”. The “release rate of 5FU and TRI from explanted devices (pseudo zero order)” value in [1] (in vivo) is 9 +/-1 % per day. Also, the “toxicity or inflammation around the implantation site” value in series [1] (subconjunctival devices, slit lamp) is listed as “no evidence of toxicity or inflammation”. The half-life – broadly, the time needed for the level to fall by half in the phase considered – in the series “in vitro” (half-life) was less than 10 min; in the series “in vitro”, 8.8 min; in “physchem [2]” (pH 3), greater than 48 h; in the series “physchem [2]” (pH 7.4), less than 0.05 h; in “physchem [7]” (pH 3) it was 204 h; in the series “physchem [7]” (pH 5) it was 12.7 h. For the same compound, the half-life in “physchem [7]” (pH 6.4) is 1.3 h; in the series “physchem [7]” (pH 7.4) it was 0.235 h; in the series “physchem [7]” (pH 8.4), 0.163 h. The “release of TRI and 5FU from compressed pellet” value in series [3] was “slowly releases both TRI and 5FU over an extended period of time (months)”. The “occurrence of PVR” value in [4] was “reduce the occurrence of PVR”. Besides, in [5] (2 mg pellets implanted in rabbit vitreous), the “intact codrug in the vitreous” value is “No intact codrug was detected”. In series [5] (rabbit vitreous, week 5), the “intravitreal levels of triamcinolone” value is “below the detection limit of the HPLC”. Besides, the “number of inflammatory cells in a defined area of tissue” value in [6] (40 µm^2 area, control > 300) is listed as less than 35. In series [6] (drug treated eyes (controls 35 µm)), the scar thickness came to 7 µm. Further, the “decrease in scar thickness compared to controls” value in series [6] (four 2 mg implants between sclera and muscle, rabbit) was determined as 80%. In series [8] (rabbit), the “Levels of TRI and 5FU in the aqueous” value was “too low to be detected”. The “tolerability in rabbit eyes” value in series [8] (ERG, slit lamp, histopathology) is on record as “well tolerated in rabbit eyes with no indication of toxicity or inflammation”. Further, the “release of 5FU in buffer” value in [9] came out at 0.3 µg/h. Besides, in series [9], the “release of TRI in buffer” value was 1.4 µg/h. In series [10] (codrug pellet on IOL haptic, rabbit capsular bag), the “tolerability (ERG and histopathologic data)” value is “well tolerated with no indication of a toxic or inflammatory response”. Also, the “PCO by slit lamp examination, study versus control eyes” value in [10] (p< 0.001) is recorded as “statistically significant decrease in PCO”. Further, the “PCO assessed using a grid” value in series [10] (p< 0.03 by 8 weeks) was “arrest of opacification”. In addition, in [11] (2 mg pellet, phosphate buffer pH 7.4), the “fraction of triamcinolone acetonide and 5FU released while rates were maintained” value is “over 60%”. Besides, the “Release of 5FU” value in series [11] (2 mg pellet, phosphate buffer pH 7.4, 37 °C) was found to be 0.4 ± 0.06 µg/h. Moreover, the “intact codrug in the receptor medium” value in series [11] (2 mg pellet, phosphate buffer pH 7.4, 37 °C, HPLC detection limit 0.5 ug/ml) is on record as “No intact codrug was detected”. In addition, in series [11] (2 mg pellet, phosphate buffer pH 7.4, 37 °C, pseudo zero order), the “mean release rate of triamcinolone acetonide” value is 1.4 ± 0.3 µg/h. For the same compound, the “mean ratio of 5FU to triamcinolone acetonide concentration (ug/ml) in the receptor solution” value in series [11] (all time points (equimolar release)) is 3.40 +/- 0.15.

In the case of `CC(=O)Nc1nnc(S(=O)(=O)NC(=O)O[C@@H]2C[C@H](C)CC[C@H]2C(C)C)s1` [product 35], the “stability in buffer solution” value in series [12] is “appears to stable in buffer solution”.
